Experimental data reported in patent US11591341B2 (ALIGOS THERAPEUTICS, INC., priority 2019, dated 2023).

Tested on: HBV
Test: HBV-DNA Antiviral Assay Using HepG2.117 Cells (intracellular HBV DNA by qPCR)
Type: cell-based, hepatitis B virus (genotype D)
Conditions: Hepatitis B virus, HepG2.117
In short: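 HepG2.117 cells (genotype D HBV, Tet-off) were induced by doxycycline withdrawal and treated for 3 days with 9 concentrations in 4-fold dilution, 2% DMSO final. Intracellular HBV DNA was measured by qPCR against a standard curve, with ATPlite viability read in parallel. EC50, EC90 and CC50 came from fits against the DMSO control.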

| Structure (SMILES) | EC50 |
| --- | --- |
| C[C@@H](NC(=O)c1c2n(c(=O)n1-c1ccc(OCC(F)(F)F)cc1)CCN(C(=O)c1ccc(Br)c(Cl)c1)C2)c1ccc(OCC(N)=O)cc1F (stereo in doubt) [Example 319, 7-(4-bromo-3-chloro-benzoyl)-3-oxo-N-[rac-(1R)-1-[4-(2-amino-2-oxo-ethoxy)-2-fluoro-phenyl]ethyl]-2-[4-(2,2,2-trifluoroethoxy)phenyl]-6,8-dihydro-5H-imidazo[1,5-a]pyrazine-1-carboxamide] | 500 to 5000 nM |
| C[C@H](NC(=O)c1c2n(c(=O)n1-c1ccc(OCC(F)(F)F)cc1)CCN(C(=O)c1ccc(Br)c(Cl)c1)C2)c1ccc(OCC(N)=O)cc1F (stereo in doubt) [Example 320, 7-(4-bromo-3-chloro-benzoyl)-3-oxo-N-[rac-(1S)-1-[4-(2-amino-2-oxo-ethoxy)-2-fluoro-phenyl]ethyl]-2-[4-(2,2,2-trifluoroethoxy)phenyl]-6,8-dihydro-5H-imidazo[1,5-a]pyrazine-1-carboxamide] | 100 to 500 nM |
| C[C@H](NC(=O)c1c2n(c(=O)n1-c1ccc(OCC(F)(F)F)cc1)CCN(C(=O)c1ccc(Br)c(Cl)c1)C2)c1ccc(OC(C)(C)C(N)=O)cc1F (stereo in doubt) [Example 336, 7-(4-bromo-3-chloro-benzoyl)-3-oxo-N-[rac-(1S)-1-[4-(2-amino-1,1-dimethyl-2-oxo-ethoxy)-2-fluoro-phenyl]ethyl]-2-[4-(2,2,2-trifluoroethoxy)phenyl]-6,8-dihydro-5H-imidazo[1,5-a]pyrazine-1-carboxamide] | 100 to 500 nM |
| C[C@@H](NC(=O)c1c2n(c(=O)n1-c1ccc(OCC(F)(F)F)cc1)CCN(C(=O)c1ccc(Br)c(Cl)c1)C2)c1ccc(OC(C)(C)C(N)=O)cc1F (stereo in doubt) [Example 337, 7-(4-bromo-3-chloro-benzoyl)-3-oxo-N-[rac-(1R)-1-[4-(2-amino-1,1-dimethyl-2-oxo-ethoxy)-2-fluoro-phenyl]ethyl]-2-[4-(2,2,2-trifluoroethoxy)phenyl]-6,8-dihydro-5H-imidazo[1,5-a]pyrazine-1-carboxamide] | 100 to 500 nM |
| C[C@H](NC(=O)c1c2n(c(=O)n1-c1ccc(OC3CC3)cc1)CCN(C(=O)c1ccc(Br)c(Cl)c1)C2)c1ccc(OC(C)(C)C(N)=O)cc1F (stereo in doubt) [Example 338, 7-(4-bromo-3-chloro-benzoyl)-2-[4-(cyclopropoxy)phenyl]-3-oxo-N-[rac-(1S)-1-[4-(2-amino-1,1-dimethyl-2-oxo-ethoxy)-2-fluoro-phenyl]ethyl]-6,8-dihydro-5H-imidazo[1,5-a]pyrazine-1-carboxamide] | 100 to 500 nM |
| C[C@@H](NC(=O)c1c2n(c(=O)n1-c1ccc(OC3CC3)cc1)CCN(C(=O)c1ccc(Br)c(Cl)c1)C2)c1ccc(OC(C)(C)C(N)=O)cc1F (stereo in doubt) [Example 339, 7-(4-bromo-3-chloro-benzoyl)-2-[4-(cyclopropoxy)phenyl]-3-oxo-N-[rac-(1R)-1-[4-(2-amino-1,1-dimethyl-2-oxo-ethoxy)-2-fluoro-phenyl]ethyl]-6,8-dihydro-5H-imidazo[1,5-a]pyrazine-1-carboxamide] | 100 to 500 nM |
| C[C@@H](NC(=O)c1c2n(c(=O)n1-c1ccc(OC3CC3)cc1)CCN(C(=O)c1ccc(Br)c(Cl)c1)C2)c1ccc(OCC#N)cc1F (stereo in doubt) [Example 342, 7-(4-bromo-3-chloro-benzoyl)-2-[4-(cyclopropxy)phenyl]-3-oxo-N-[rac-(1R)-1-[4-(cyanomethoxy)-2-fluoro-phenyl]ethyl]-6,8-dihdyro-5H-imidazo[1,5-a]pyrazine-1-carboxamide] | 100 to 500 nM |
| C[C@H](NC(=O)c1c2n(c(=O)n1-c1ccc(OC3CC3)cc1)CCN(C(=O)c1ccc(Br)c(Cl)c1)C2)c1ccc(OCC#N)cc1F (stereo in doubt) [Example 343, 7-(4-bromo-3-chloro-benzoyl)-2-[4-(cyclopropoxy)phenyl]-3-oxo-N-[rac-(1S)-1-[4-(cyanomethoxy)-2-fluoro-phenyl]ethyl]-6,8-dihydro-5H-imidazo[1,5-a]pyrazine-1-carboxamide] | 100 to 500 nM |
| C[C@@H](NC(=O)c1c2n(c(=O)n1-c1ccc(OCC(F)(F)F)cc1)CCN(C(=O)c1ccc(Br)c(Cl)c1)C2)c1ccc(OCC#N)cc1F (stereo in doubt) [Example 344, 7-(4-bromo-3-chloro-benzoyl)-3-oxo-N-[rac-(1R)-1-[4-(cyanomethoxy)-2-fluoro-phenyl]ethyl]-2-[4-(2,2,2-trifluoroethoxy)phenyl]-6,8-dihydro-5H-imidazo[1,5-a]pyrazine-1-carboxamide] | 500 to 5000 nM |
| C[C@H](NC(=O)c1c2n(c(=O)n1-c1ccc(OCC(F)(F)F)cc1)CCN(C(=O)c1ccc(Br)c(Cl)c1)C2)c1ccc(OCC#N)cc1F (stereo in doubt) [Example 345, 7-(4-bromo-3-chloro-benzoyl)-3-oxo-N-[rac-(1S)-1-[4-(cyanomethoxy)-2-fluoro-phenyl]ethyl]-2-[4-(2,2,2-trifluoroethoxy)phenyl]-6,8-dihydro-5H-imidazo[1,5-a]pyrazine-1-carboxamide] | 100 to 500 nM |
| C[C@@H](NC(=O)c1c2n(c(=O)n1-c1ccc(OC3CC3)cc1)CCN(C(=O)c1ccc(Br)c(Cl)c1)C2)c1ccc(OC2COC2)cc1F (stereo in doubt) [Example 346, 7-(4-bromo-3-chloro-benzoyl)-2-[4-(cyclopropoxy)phenyl]-3-oxo-N-[rac-(1R)-1-[2-fluoro-4-(oxetan-3-yloxy)phenyl]ethyl]-6,8-dihydro-5H-imidazo[1,5-a]pyrazine-1-carboxamide] | 100 to 500 nM |
| C[C@H](NC(=O)c1c2n(c(=O)n1-c1ccc(OC3CC3)cc1)CCN(C(=O)c1ccc(Br)c(Cl)c1)C2)c1ccc(OC2COC2)cc1F (stereo in doubt) [Example 347, 7-(4-bromo-3-chloro-benzoyl)-2-[4-(cyclopropoxy)phenyl]-3-oxo-N-[rac-(1S)-1-[2-fluoro-4-(oxetan-3-yloxy)phenyl]ethyl]-6,8-dihydro-5H-imidazo[1,5-a]pyrazine-1-carboxamide] | 100 to 500 nM |
| C[C@H](Oc1ccc(CNC(=O)c2c3n(c(=O)n2-c2ccc(OCC(F)(F)F)cc2)CCN(C(=O)c2ccc(Br)c(Cl)c2)C3)c(F)c1)C(N)=O (stereo in doubt) [Example 353, 7-(4-bromo-3-chloro-benzoyl)-N-[[2-fluoro-4-[rac-(1S)-2-amino-1-methyl-2-oxo-ethoxy]phenyl]methyl]-3-oxo-2-[4-(2,2,2-trifluoroethoxy)phenyl]-6,8-dihydro-5H-imidazo[1,5-a]pyrazine-1-carboxamide] | 500 to 5000 nM |
| C[C@@H](Oc1ccc(CNC(=O)c2c3n(c(=O)n2-c2ccc(OCC(F)(F)F)cc2)CCN(C(=O)c2ccc(Br)c(Cl)c2)C3)c(F)c1)C(N)=O (stereo in doubt) [Example 354, 7-(4-bromo-3-chloro-benozyl)-N-[[2-fluoro-4-[rac-(1R)-2-amino-1-methyl-2-oxo-ethoxy]phenyl]methyl]-3-oxo-2-[4-(2,2,2-trifluoroethoxy)phenyl]-6,8-dihydro-5H-imidazo[1,5-a]pyrazine-1-carboxamide] | 500 to 5000 nM |
